Here are results for 47 compounds from article PMC12207590, “Substrate Specificity of the Organic Cation Transporters MATE1 and MATE2K and Functional Overlap with OCT1 and OCT2” (Journal of Medicinal Chemistry, 2025).

Like-named read-outs stand apart in the source and are kept apart here.

One test addresses T1, MATE1 (Homo sapiens, UniProt Q96FL8).
T1 sequence (Q96FL8 1-570): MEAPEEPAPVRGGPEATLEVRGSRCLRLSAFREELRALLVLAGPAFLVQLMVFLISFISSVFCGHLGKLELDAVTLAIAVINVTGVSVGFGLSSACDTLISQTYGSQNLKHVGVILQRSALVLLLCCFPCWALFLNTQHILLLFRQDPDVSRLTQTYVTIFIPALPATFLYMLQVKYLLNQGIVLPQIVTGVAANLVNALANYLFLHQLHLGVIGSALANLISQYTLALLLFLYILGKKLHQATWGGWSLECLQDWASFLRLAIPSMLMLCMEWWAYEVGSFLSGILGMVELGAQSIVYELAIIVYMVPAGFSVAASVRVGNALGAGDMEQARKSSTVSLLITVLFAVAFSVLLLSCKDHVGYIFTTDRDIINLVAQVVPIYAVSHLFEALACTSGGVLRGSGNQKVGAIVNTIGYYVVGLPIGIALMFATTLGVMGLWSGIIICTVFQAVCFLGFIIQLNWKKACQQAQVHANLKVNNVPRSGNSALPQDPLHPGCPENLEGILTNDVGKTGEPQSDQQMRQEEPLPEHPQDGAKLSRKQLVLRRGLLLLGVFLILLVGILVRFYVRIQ
The experiment in a line: Uptake ratio in MATE1-overexpressing HEK293 cells vs empty vector (2.5 μM, 1 min, HPLC-MS/MS). Format: cell-based. To be noted: for MATE1 ratio in this study: Table S1.

The target of the next test is MATE2K (Homo sapiens, UniProt Q86VL8). The experiment in a line: Uptake ratio in MATE2K-overexpressing HEK293 cells vs empty vector (2.5 μM, 1 min, HPLC-MS/MS). Format: cell-based. The note with it: for MATE2K ratio in this study: Table S1.
Sequence of MATE2K (Q86VL8 1-566 isoform Q86VL8-3): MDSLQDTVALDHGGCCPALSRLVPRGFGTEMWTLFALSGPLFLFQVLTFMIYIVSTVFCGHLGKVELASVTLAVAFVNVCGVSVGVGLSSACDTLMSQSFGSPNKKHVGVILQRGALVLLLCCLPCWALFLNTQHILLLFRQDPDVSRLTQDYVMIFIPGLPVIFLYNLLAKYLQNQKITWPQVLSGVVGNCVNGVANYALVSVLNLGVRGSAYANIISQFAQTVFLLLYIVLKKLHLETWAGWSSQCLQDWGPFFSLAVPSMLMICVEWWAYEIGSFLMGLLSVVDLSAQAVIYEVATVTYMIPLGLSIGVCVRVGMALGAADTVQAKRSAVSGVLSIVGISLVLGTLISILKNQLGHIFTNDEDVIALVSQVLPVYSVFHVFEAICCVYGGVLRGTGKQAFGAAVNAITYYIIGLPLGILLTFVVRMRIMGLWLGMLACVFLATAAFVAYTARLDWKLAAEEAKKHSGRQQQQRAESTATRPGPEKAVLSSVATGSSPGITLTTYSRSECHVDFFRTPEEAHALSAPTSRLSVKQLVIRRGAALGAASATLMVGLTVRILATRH
Setting [1] is: fold uptake over empty vector, 2.5 μM, 1 min.
Where [2] appears, read: mean ratio of uptake in MATE1-overexpressing HEK293 cells vs empty vector, 2.5 μM, 1 min.
Setting [3] is: mean ratio of uptake in MATE2K-overexpressing HEK293 cells vs empty vector, 2.5 μM, 1 min.

On to `NC(=O)NCCC[C@H](N)C(=O)O` [Citrulline], for which, at MATE1, the “MATE1 (uptake ratio)” value amounted to 0.77 and the MATE1 ratio came to 0.77. Moreover, on MATE2K, the “MATE2 (uptake ratio)” value turned out to be 1.26 and the MATE2K ratio worked out at 1.26.
As to `CC[C@H]1OC(=O)[C@H](C)[C@@H](O[C@H]2C[C@@](C)(OC)[C@@H](O)[C@H](C)O2)[C@H](C)[C@@H](O[C@@H]2O[C@H](C)C[C@H](N(C)C)[C@H]2O)[C@](C)(OC)C[C@@H](C)C(=O)[C@H](C)[C@@H](O)[C@]1(C)O` [Clarithromycin], on MATE1 (setting [1]), the MATE1 ratio is listed as 1.21. Besides, the “MATE1 (uptake ratio)” value at MATE1 (setting [2]) was found to be 1.21. Also, the MATE2K ratio at MATE2K (setting [1]) came out at 1.31. For the same compound, at MATE2K (setting [3]), the “MATE2 (uptake ratio)” value amounted to 1.31.
For the compound `C[N+]12CCC(CC1)C(OC(=O)C(O)(c1ccccc1)c1ccccc1)C2` (centres unmarked) [Clidinium], at MATE1 (setting [1]), the MATE1 ratio is given as 16.18. The “MATE1 (uptake ratio)” value on MATE1 (setting [2]) was 16.18. Also, the MATE2K ratio on MATE2K (setting [1]) came out at 1.79. In addition, the “MATE2 (uptake ratio)” value on MATE2K (setting [3]) is 1.79.
In the case of `Clc1cccc(Cl)c1N=C1NCCN1` [Clonidine], on MATE1 (setting [1]), the MATE1 ratio was determined as 1.11. Further, on MATE1 (setting [2]), the “MATE1 (uptake ratio)” value turned out to be 1.11. Moreover, on MATE2K (setting [1]), the MATE2K ratio is on record as 1.17. Moreover, on MATE2K (setting [3]), the “MATE2 (uptake ratio)” value is 1.17.
Consider `CC(C)(C)NCC(O)c1ccc(O)c(O)c1` (centres unmarked) [Colterol], for which the MATE1 ratio on MATE1 (setting [1]) was determined as 10.79. Besides, on MATE1 (setting [2]), the “MATE1 (uptake ratio)” value was 10.79. Moreover, the MATE2K ratio at MATE2K (setting [1]) is on record as 5.80. Also, the “MATE2 (uptake ratio)” value at MATE2K (setting [3]) worked out at 5.8.
Regarding `Cc1oc2nc3c(c(NC(=O)CN4CCCC4=O)c2c1C)CCCC3` [Coluracetam], the MATE1 ratio on MATE1 (setting [1]) stood at 0.97. Moreover, the MATE2K ratio at MATE2K (setting [1]) is 0.97.
With `CN1C(=O)CC[C@H]1c1cccnc1` [Cotinine], the MATE1 ratio on MATE1 (setting [1]) stood at 1.11. For the same compound, at MATE2K (setting [1]), the MATE2K ratio turned out to be 1.20.
As for `CN(CC(=O)O)C(=N)N` [Creatine], the MATE1 ratio at MATE1 is 1.01. Also, the MATE2K ratio on MATE2K is 1.07.
Regarding `CN1CC(=O)NC1=N` [Creatinine], the “MATE1 ratio in this study” value at MATE1 (2.5 μM, 1 min) worked out at 0.83. Besides, the MATE1 ratio at MATE1 (setting [1]) came to 0.83. In addition, the “MATE2K ratio in this study” value at MATE2K (2.5 μM, 1 min) turned out to be 1.07. In addition, the MATE2K ratio at MATE2K (setting [1]) came to 1.07.
Regarding `CN(C)CCOC(=O)C(c1ccccc1)C1(O)CCCC1` (centres unmarked) [Cyclopentolate], at MATE1 (setting [1]), the MATE1 ratio amounted to 1.09. The MATE2K ratio at MATE2K (setting [1]) was determined as 1.34.
Regarding `O=c1cccc2n1C[C@@H]1CNC[C@H]2C1` [Cytisine], at MATE1, the MATE1 ratio is given as 1.95. The MATE2K ratio on MATE2K is reported as 1.17.
For `Nc1ccc(S(=O)(=O)c2ccc(N)cc2)cc1` [Dapsone], the MATE1 ratio at MATE1 (setting [1]) is 0.89. In addition, the MATE2K ratio at MATE2K (setting [1]) was 0.95.
As for `N=C(N)N1CCc2ccccc2C1` [Debrisoquine], the “MATE1 ratio in this study” value on MATE1 (2.5 μM, 1 min) is reported as 8.16. On MATE1 (setting [1]), the MATE1 ratio is 8.16. For the same compound, the “MATE2K ratio in this study” value on MATE2K (2.5 μM, 1 min) was 5.05. For the same compound, the MATE2K ratio on MATE2K (setting [1]) worked out at 5.05.
Regarding `Nc1ncn([C@H]2C[C@H](O)[C@@H](CO)O2)c(=O)n1` [Decitabine], the MATE1 ratio on MATE1 (setting [1]) came out at 1.13. For the same compound, the MATE2K ratio on MATE2K (setting [1]) is 1.04.
For the compound `COc1cc2c(cc1OC)-c1c(C)c3ccc(OC)c(OC)c3c[n+]1CC2` [Dehydrocorydaline], at MATE1, the MATE1 ratio came out at 9.25. The MATE2K ratio at MATE2K was determined as 2.85.
`CC(C)Nc1cccnc1N1CCN(C(=O)c2cc3cc(NS(C)(=O)=O)ccc3[nH]2)CC1` [Delavirdine]: the MATE1 ratio on MATE1 (setting [1]) was 1.19. For the same compound, at MATE2K (setting [1]), the MATE2K ratio is on record as 1.09.
Taken in the same sequence, the figures for `COc1ccc(CCNC[C@H](O)c2ccc(O)cc2)cc1OC` [Denopamine (R), Denopamine] were 2.32 and 1.69.
Taken in the same sequence, the figures for `CNCCc1ccc(O)c(O)c1` [Deoxyepinephrine] were 34.31 and 3.40.
Taken in the same sequence, the figures for `CC(C1=C(CCN(C)C)Cc2ccccc21)c1ccccn1` (centres unmarked) [Dimethindene] were 0.99 and 1.02.
On to `C[N+]1(C)CCN(c2ccccc2)CC1` [Dimethylphenylpiperazinium], for which the MATE1 ratio at MATE1 was found to be 29.06. Besides, at MATE2K, the MATE2K ratio is on record as 4.30.
With `OCCN(CCO)c1nc(N2CCCCC2)c2nc(N(CCO)CCO)nc(N3CCCCC3)c2n1` [Dipyridamole], at MATE1 (setting [1]), the MATE1 ratio is on record as 1.11. In addition, on MATE2K (setting [1]), the MATE2K ratio worked out at 1.13.
For `CC(C)N(CCC(C(N)=O)(c1ccccc1)c1ccccn1)C(C)C` (centres unmarked) [Disopyramide] the same measures were 1.26 and 1.21.
Regarding `CN(C)CCC=C1c2ccccc2COc2ccccc21` [Doxepin (E), Doxepin], the MATE1 ratio on MATE1 (setting [1]) is 1.26. Also, the MATE2K ratio on MATE2K (setting [1]) turned out to be 1.08.
Taken in the same sequence, the figures for `CN(C)CCC=C1c2ccccc2COc2ccccc21` [Doxepin (Z), Doxepin] were 1.28 and 1.09.
For `CCC1(C2=NCCN2)Cc2ccccc2O1` (centres unmarked) [Efaroxan] the same measures were 1.38 and 1.72.
For `CC/C(=C(\c1ccc(O)cc1)c1ccc(OCCNC)cc1)c1ccccc1` [Endoxifen] the same measures were 1.30 and 1.21.
Take `COc1cc2c(cc1OC)-c1cc3ccc4c(c3c[n+]1CC2)OCO4` [Epiberberine]: the MATE1 ratio at MATE1 is on record as 12.54. Besides, the MATE2K ratio at MATE2K worked out at 5.89.
As for `CNC[C@H](O)c1ccc(O)c(O)c1` [Epinephrine (-), Epinephrine], the MATE1 ratio at MATE1 (setting [1]) came out at 37.78. In addition, the MATE2K ratio at MATE2K (setting [1]) is recorded as 3.98.
For `COC(=O)CCc1ccc(OCC(O)CNC(C)C)cc1` (centres unmarked) [Esmolol] the same measures were 1.42 and 1.23.
As to `C[C@]12CC[C@@H]3c4ccc(OS(=O)(=O)O)cc4CC[C@H]3[C@@H]1CCC2=O` [Estrone-3-sulfate], on MATE1 (2.5 μM, 1 min), the “MATE1 ratio in this study” value amounted to 4.80. Besides, the MATE1 ratio at MATE1 (setting [1]) amounted to 4.80. For the same compound, the “substrate of MATE1” value at MATE1 (organic anions tested) is reported as “substrates of MATE1”. The “MATE2K ratio in this study” value on MATE2K (2.5 μM, 1 min) came to 2.08. Moreover, at MATE2K (setting [1]), the MATE2K ratio came out at 2.08.
`CCNCC(O)c1cccc(O)c1` (centres unmarked) [Etilefrine]: the MATE1 ratio on MATE1 (setting [1]) is 9.81. The MATE2K ratio on MATE2K (setting [1]) was determined as 2.04.
With `O=S(=O)(c1cccc2cnccc12)N1CCCNCC1` [Fasudil], on MATE1 (setting [1]), the MATE1 ratio was determined as 1.50. For the same compound, the MATE2K ratio on MATE2K (setting [1]) was 1.80.
Taken in the same sequence, the figures for `Cc1cnc(Nc2ccc(OCCN3CCCC3)cc2)nc1Nc1cccc(S(=O)(=O)NC(C)(C)C)c1` [Fedratinib] were 1.16 and 0.87.
Taken in the same sequence, the figures for `NC(=O)OCC(COC(N)=O)c1ccccc1` [Felbamate] were 0.97 and 0.94.
Taken in the same sequence, the figures for `Oc1ccc(C2CNCCc3c2cc(O)c(O)c3Cl)cc1` (centres unmarked) [Fenoldopam] were 8.11 and 4.17.
With `C[N+]1(CCC(C(N)=O)(c2ccccc2)c2ccccc2)CCCCC1` [Fenpiverinium], the MATE1 ratio at MATE1 (setting [1]) came to 15.19. Further, the MATE2K ratio on MATE2K (setting [1]) is reported as 1.35.
Taken in the same sequence, the figures for `O=C(Nc1nc2cccc(-c3ccc(CN4CCS(=O)(=O)CC4)cc3)n2n1)C1CC1` [Filgotinib] were 0.89 and 1.01.
As for `CCCCCCCCc1ccc(CCC(N)(CO)CO)cc1` [Fingolimod], the MATE1 ratio on MATE1 (setting [1]) is recorded as 1.12. Moreover, the MATE2K ratio on MATE2K (setting [1]) turned out to be 1.14.
Taken in the same sequence, the figures for `O=C(NCC1CCCCN1)c1cc(OCC(F)(F)F)ccc1OCC(F)(F)F` (centres unmarked) [Flecainide] were 1.13 and 1.19.
For `OCCN1CCN(CCCN2c3ccccc3Sc3ccc(C(F)(F)F)cc32)CC1` [Fluphenazine], the MATE1 ratio on MATE1 (setting [1]) came out at 1.26. Besides, the MATE2K ratio on MATE2K (setting [1]) is recorded as 1.13.
Taken in the same sequence, the figures for `Nc1nc(=O)c2nc(CNc3ccc(C(=O)N[C@@H](CCC(=O)O)C(=O)O)cc3)cnc2[nH]1` [Folic acid] were 1.00 and 1.13.
Taken in the same sequence, the figures for `CCOC(=O)c1ccc(OC(=O)CCCCCNC(=N)N)cc1` [Gabexate] were 5.78 and 4.18.
Taken in the same sequence, the figures for `NCCCC(=O)O` [Gamma-aminobutyric acid] were 0.90 and 0.87.
For the compound `COc1cc2ncnc(Nc3ccc(F)c(Cl)c3)c2cc1OCCCN1CCOCC1` [Gefitinib], the MATE1 ratio on MATE1 (setting [1]) was 0.89. The MATE2K ratio on MATE2K (setting [1]) is reported as 0.88.
Regarding `Nc1ccn([C@@H]2O[C@H](CO)[C@@H](O)C2(F)F)c(=O)n1` [Gemcitabine], the “MATE1 ratio in this study” value on MATE1 (2.5 μM, 1 min) came out at 1.29. In addition, the MATE1 ratio on MATE1 (setting [1]) is given as 1.29. Further, the “MATE2K ratio in this study” value at MATE2K (2.5 μM, 1 min) is 1.08. In addition, the MATE2K ratio on MATE2K (setting [1]) is 1.08.
Turning to `CN(C)c1ccc(C(=C2C=CC(=[N+](C)C)C=C2)c2ccc(N(C)C)cc2)cc1` [Gentian violet], the MATE1 ratio on MATE1 (setting [1]) is listed as 1.40. For the same compound, the MATE2K ratio on MATE2K (setting [1]) is on record as 1.05.
As for `N[C@@H](CCC(=O)O)C(=O)O` [Glutamic acid (D), Glutamic acid], the MATE1 ratio on MATE1 is 1.17. In addition, the MATE2K ratio at MATE2K is given as 0.99.
